Measurements reported in paper PMC11623308 (2023).

Test system: 5'-biotin NRAS-G4 (RNA, G4) UGUGGGAGGGGCGGGUCUGGG
Experiment: SPR
Conditions: K+ 100 mM; 10 mM Tris pH 6.9, 0.005% Tween 20, 5% DMSO; Langmuir 1:1 fit

KD: 79 ± 1.2 nM
Structure (SMILES): CN(C)c1ccc(Nc2c3ccc(NC(=O)CCN4CCCC4)cc3nc3cc(NC(=O)CCN4CCCC4)ccc23)cc1
